Assays:
Assay in all cases: relative viability (nuclei count vs DMSO), 5 days (fraction); higher = more cells survive
Everolimus + Pemetrexed = compound: CO[C@H]1C[C@@H]2CC[C@@H](C)[C@@](O)(O2)C(=O)C(=O)N2CCCC[C@H]2C(=O)O[C@H]([C@H](C)C[C@@H]2CC[C@@H](OCCO)[C@H](OC)C2)CC(=O)[C@H](C)/C=C(\C)[C@@H](O)[C@@H](OC)C(=O)[C@H](C)C[C@H](C)/C=C/C=C/C=C/1C [Everolimus] + Nc1nc2[nH]cc(CCc3ccc(C(=O)N[C@@H](CCC(=O)O)C(=O)O)cc3)c2c(=O)[nH]1 [Pemetrexed] (partner 0.2 µM)
In short: (§1)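 After 5 days of treatment, lung cancer cells in 1536-well plates were fixed and stained in a single step (final 0.05% Triton X-100, 1% formaldehyde, 1 ug/ml Hoechst) and their nuclei counted on 4× images. Treatment had been applied by pin tool the day after seeding as one drug alone or as a fixed anchor-drug dose with five library-drug doses (not always all listed) in √10 steps. Relative viability is the nuclei count of treated wells divided by that of vehicle wells, and values are medians of duplicate plates.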

Everolimus + Olaparib = compound: CO[C@H]1C[C@@H]2CC[C@@H](C)[C@@](O)(O2)C(=O)C(=O)N2CCCC[C@H]2C(=O)O[C@H]([C@H](C)C[C@@H]2CC[C@@H](OCCO)[C@H](OC)C2)CC(=O)[C@H](C)/C=C(\C)[C@@H](O)[C@@H](OC)C(=O)[C@H](C)C[C@H](C)/C=C/C=C/C=C/1C [Everolimus] + O=C(c1cc(Cc2n[nH]c(=O)c3ccccc23)ccc1F)N1CCN(C(=O)C2CC2)CC1 [Olaparib] (partner 8 µM)
In short: as §1

Everolimus + Alpelisib = compound: CO[C@H]1C[C@@H]2CC[C@@H](C)[C@@](O)(O2)C(=O)C(=O)N2CCCC[C@H]2C(=O)O[C@H]([C@H](C)C[C@@H]2CC[C@@H](OCCO)[C@H](OC)C2)CC(=O)[C@H](C)/C=C(\C)[C@@H](O)[C@@H](OC)C(=O)[C@H](C)C[C@H](C)/C=C/C=C/C=C/1C [Everolimus] + Cc1nc(NC(=O)N2CCC[C@H]2C(N)=O)sc1-c1ccnc(C(C)(C)C(F)(F)F)c1 [Alpelisib] (partner 2 µM)
In short: as §1

Everolimus + Bortezomib = compound: CO[C@H]1C[C@@H]2CC[C@@H](C)[C@@](O)(O2)C(=O)C(=O)N2CCCC[C@H]2C(=O)O[C@H]([C@H](C)C[C@@H]2CC[C@@H](OCCO)[C@H](OC)C2)CC(=O)[C@H](C)/C=C(\C)[C@@H](O)[C@@H](OC)C(=O)[C@H](C)C[C@H](C)/C=C/C=C/C=C/1C [Everolimus] + CC(C)C[C@H](NC(=O)[C@H](Cc1ccccc1)NC(=O)c1cnccn1)B(O)O [Bortezomib] (partner 0.002 µM)
In short: as §1

Row | Cell Line | relative viability (Everolimus + Pemetrexed; first compound 0.01 µM) | relative viability (Everolimus + Pemetrexed; first compound 0.03162 µM) | relative viability (Everolimus + Pemetrexed; first compound 0.1 µM) | relative viability (Everolimus + Pemetrexed; first compound 0.3162 µM) | relative viability (Everolimus + Pemetrexed; first compound 1 µM) | relative viability (Everolimus + Olaparib; first compound 0.01 µM) | relative viability (Everolimus + Olaparib; first compound 0.03162 µM) | relative viability (Everolimus + Olaparib; first compound 0.1 µM) | relative viability (Everolimus + Olaparib; first compound 0.3162 µM) | relative viability (Everolimus + Olaparib; first compound 1 µM) | relative viability (Everolimus + Alpelisib; first compound 0.01 µM) | relative viability (Everolimus + Alpelisib; first compound 0.03162 µM) | relative viability (Everolimus + Alpelisib; first compound 0.1 µM) | relative viability (Everolimus + Alpelisib; first compound 0.3162 µM) | relative viability (Everolimus + Alpelisib; first compound 1 µM) | relative viability (Everolimus + Bortezomib; first compound 0.01 µM) | relative viability (Everolimus + Bortezomib; first compound 0.03162 µM) | relative viability (Everolimus + Bortezomib; first compound 0.1 µM) | relative viability (Everolimus + Bortezomib; first compound 0.3162 µM) | relative viability (Everolimus + Bortezomib; first compound 1 µM)
1 | NCI-H2405 | 0.796 | 0.825 | 0.671 | 0.726 | 0.825 | 0.757 | 0.745 | 0.681 | 0.713 | 0.686 | 0.452 | 0.475 | 0.372 | 0.444 | 0.469 | 0.783 | 1.07 | 0.783 | 0.726 | 0.744
2 | NCI-H3122 | 0.198 | 0.232 | 0.228 | 0.208 | 0.201 | 0.638 | 0.643 | 0.497 | 0.476 | 0.579 | 0.587 | 0.549 | 0.325 | 0.59 | 0.363 | 1.05 | 1.16 | 1.06 | 1.08 | 1.01
3 | PC-3 [JPC-3] | 0.988 | 0.9 | 0.72 |  | 1.07 | 1.07 | 1.21 | 1.1 |  | 1.05 | 0.881 | 0.828 | 0.793 | 0.789 | 0.747 | 0.703 | 0.798 | 0.846 | 0.774 | 0.889
4 | PC-14 | 0.176 | 0.186 | 0.181 | 0.184 | 0.184 | 0.46 | 0.434 | 0.298 | 0.343 | 0.411 | 0.796 | 0.661 | 0.62 | 0.589 | 0.476 | 0.876 | 0.84 | 0.864 | 0.658 | 0.713
5 | RERF-LC-KJ | 0.468 | 0.489 | 0.498 | 0.426 | 0.457 | 0.666 | 0.61 | 0.593 | 0.605 | 0.606 | 0.632 | 0.463 | 0.408 | 0.481 | 0.53 | 0.92 | 0.621 | 0.731 | 0.64 | 0.611
6 | SK-LU-1 | 0.607 | 0.683 | 0.688 | 0.74 | 0.681 | 0.423 | 0.378 | 0.301 | 0.389 | 0.362 | 0.46 | 0.471 | 0.565 | 0.555 | 0.661 | 0.674 | 0.742 | 0.909 | 0.618 | 0.769
7 | SW 1573 | 0.594 | 0.592 | 0.543 | 0.562 | 0.496 | 0.264 | 0.384 | 0.314 | 0.268 | 0.3 | 0.449 | 0.374 | 0.441 | 0.334 | 0.346 | 0.707 | 0.512 | 0.602 | 0.491 | 0.636
8 | UMC-11 | 0.43 | 0.412 | 0.429 | 0.394 | 0.426 | 0.362 | 0.273 | 0.223 | 0.239 | 0.29 | 0.348 | 0.304 | 0.301 | 0.32 | 0.311 | 0.325 | 0.34 | 0.301 | 0.356 | 0.362

Reference: the supplement of paper PMC10307832
